Source: patent publication US12251398B2, “Topical compositions designated to maintain and/or restore the integrity of the mucosa and damaged epidermis” (RICERFARMA S.R.L., priority 2020, dated 2025)

Assays:
hyaluronidases = conditions: known, in words; cited from earlier work
[1] = tested on: Hyaluronidase from bovine testes I-S Type; experiment: Enzymatic degradation of hyaluronic acid by hyaluronidase, Mw followed by HP-SEC-TDA; type: biochemical; conditions: in words
Excerpt: The molecular weight distribution of degraded acids will be analyzed by using High Performance Size Exclusion Chromatography coupled with a Triple Detector Array (HP-SEC-TDA).
The following is the list of reagents and materials used: • Hyaluronic acid (Mw 1.348.000 Da), Contipro a.s. (Czech Republic) • Hyaluronic acid (Mw 1.450.000 Da), Lehvoss Italia S.r.l. (Italy) • Glycerophosphocholine • Ascorbyl Palmitate • Citric acid monohydrate, Sigma Aldrich • Deionized H2O obtained with a Culligan apparatus; • Hyaluronidase from bovine testes I-S Type. 400-1000 units/mg. Sigma Aldrich; • NaNO3. Sigma Aldrich; • NaN3. Sigma Aldrich; • Snap-it vial 0.3 ml, 11.6×32 mm. Thermo Scientific; • Snap-it cap 11 mm, Thermo Scientific; • Sodium citrate diidrate, Sigma Aldrich. Samples Prepared and Tested:
10 ml of solution were hydrolyzed.
Buffer Solution: Solution 1 has been added to Solution 2 and stirred at room temperature for 30′. Resulting pH=6.06.
Hyaluronidase: about 10 mg of hyaluronidase were dissolved in about 1 ml of H2O and stirred at room temperature for 3 hours (10 mg/ml).
The solutions were stirred at 38° C. in an oil bath for about 1 h before adding 67 μl of the enzyme solution (HA/Hyaluronidase 15/1 w/w).
Different aliquots of solutions were collected at different timing (1 h; 2 h; 3 h; 4 h; 5 h; 6 h, 24 h) and heated at 100° C. for 5′ using a thermoshaker to denature the enzyme. The solutions were filtrated to remove the precipitated enzyme (LLG-Syringe filter CA pore size 0.20 μm. Ø 13 mm). Before HP-SEC-TDA analyses, the solutions were diluted to 0.5 mg/ml of HA with mobile phase.
Two equivalent HP-SEC-TDA instruments were used: • 1) Viscotek system model TDA305. equipped with Refractive Index, Right and Low Angle Light Scattering and Viscometers detectors, was used under the following conditions: • Columns: 2 columns TSKGMPWXL 13 μm. […]

[2] = as disclosed in WO93/19730; cited from earlier work

SMILES	inhibitory activity against hyaluronidases (hyaluronidases)	effect on the enzymatic kinetics of HA degradation [1]	effect on the enzymatic kinetics of HA degradation ([1]; listed as ascorbyl palmitate)	systemic toxicity [2]	topical tolerability [2]
CCCCCCCCCCCCCCCC(=O)OC[C@H](O)[C@H]1OC(=O)C(O)=C1O [Ascorbyl Palmitate, Ascorbyl palmitate]	significant inhibitory activity	significantly effective in slowing down the enzymatic kinetics	significantly effective in slowing enzymatic kinetics		
C[N+](C)(C)CCOP(=O)([O-])OC[C@H](O)CO [Glycerophosphocholine]		does not contribute in any way to the enzymatic kinetics		practically devoid of systemic toxicity	marked topical tolerability
